Measured values taken from PMC6052416, “Selective inhibition of carbonic anhydrase-IX by sulphonamide derivatives induces pH and reactive oxygen species-mediated apoptosis in cervical cancer HeLa cells” (Journal of Enzyme Inhibition and Medicinal Chemistry, 2018).
Where two headings read alike, the source gives them in different places.

Assays:
HeLa cells [1] = experiment: DNA damage γ-H2AX immunofluorescence; assay type: cell-based, human; conditions: 24 h, concentration dependent
Protocol: HeLa cells (1 × 10^4/mL) were seeded in 12-well cell culture dishes and after 24 h, they were administered with the sulphonamide derivative compounds at doses of 10–25–50 µM and incubated for 24 h. The cells were washed with PBS and fixed with 100% methanol at −20 °C overnight, which was followed by PBS washing three times for 10 min for each washing. The cells were treated with 0.2% Triton X-100 in a shaker, at room temperature for 5 min. They were washed with PBS, and 1% BSA-containing PBS was then added, and incubation with primary mouse monoclonal anti-γ-H2AX antibody (Cell Signaling Technology, Danvers, MA) was applied at 37 °C for 1 h. The cells were washed with PBS for 5 min three times. Secondary goat anti-mouse Alexa-488-conjugated IgG (Invitrogen, Thermo Fisher Scientific, USA) was administered and the cells were incubated at 37 °C for 20 min, followed by PBS washing for 4–5 min three times. 1 mL 70% EtOH was added and, at +4 °C, released to incubation for 5 min. 1 mL 100% EtOH was added in a shaker, which was then incubated at room temperature for 1–2 min. The nucleus was stained with DAPI and the images were recorded using an Olympus Inverted Fluorescence Microscope (Olympus CKX53, DP73).

HeLa cells [2] = experiment: Intracellular free amino acids by LC-MS/MS; assay type: cell-based, human; conditions: 25 µM, 24 h, relative to untreated group
Protocol: The intracellular free amino acid level was measured according to the Chen et al. method. HeLa cells were planted in 10 cm^2 cell culture dishes, and following 24-h treatment with sulphonamide at a dose of 25 µM, the growth medium was poured out, and the cells were swiftly washed twice with 5 mL cold PBS. Pre-cooled MeOH (−60 °C) was added, and the cells were stripped with a cell scraper. The cell suspension obtained was replaced in 15-mL conic tubes. The samples were kept in liquid nitrogen for 10 min and then dissolved on ice, which was triplicated until the cells were shredded. The samples were centrifuged at 3000 g at 4 °C, for 30 min, and the supernatants were transferred to new tubes. The amino acid level in the supernatant was measured using LC-MS/MS according to the protocol of the Jasem kit. The Jasem-free amino acid assay kit is used for studies involving the diagnosis of various hereditary metabolic disorders and the feeding of newborns with hereditary metabolic disorders. In this study, the protocol used to determine the intracellular free amino acid is as follows. […] Twenty-seven amino acids in the acquired supernatant were analysed in HPLC vials using LC-MS/MS (Shimadzu 8045, Japan). The residual pellet was lysed in 1 mL lysis buffer, protein concentration of which was detected using the BCA protein assay kit (Thermo Fisher Scientific, Waltham, MA). […]

[3] = tested on: HEK-293 (embryonic kidney epithelial cell); experiment: WST-1 cytotoxicity, HEK-293; assay type: cell-based; conditions: normal cell
Protocol: Cancer and normal cell lines were purchased from ATCC and stored in liquid nitrogen. HT-29 (colon adenoma cancer), HeLa (cervix adenoma cancer cell), MDA-MB-231 (breast adenoma cancer cell), HEK-293 (embryonic kidney epithelial cell) and PNT-1A (normal prostate cells) cell lines were incubated in DMEM: F-12 and RPMI-1640, including 10% foetal bovine serum (FBS), 100 µg/mL streptomycin/100 IU/mL penicillin, at 37 °C in an incubator containing 5% CO2, 95% air in a humid atmosphere.
The cytotoxic effects of the substances were evaluated with WST-1 kits (Roche, Germany) in accordance with the manufacturer’s protocols. The cells were planted in 96-well plates (10^4 cells in each well). After incubation for 24 h, the media were discarded and the substances and 5-Fu as the control drug, at doses of 0, 2.5, 5, 10, 25, 50, 100 and 200 µM, were incubated for 24, 48 and 72 h. WST-1 reactive of 10 µL was added to all wells. Following 4-h incubation, the measurements were taken on a plate reader (Spectramax M5) at wavelengths of 450 and 630 nm. Graphs were then created and the IC50 value of each substance was calculated.

HeLa cells [4] = experiment: Intracellular pH, extracellular pH and lactate level; assay type: cell-based, human
Protocol: Intracellular PH was measured according to the protocol of the fluorometric intracellular pH assay kit (Sigma, Germany, MAK-150). Fluorescent BCFL-AM indicator that was able to pass through the cell membrane was used to measure pHi fluctuations in the fluorometric intracellular pH kit. BCFL-AM was utilised to measure the reductions in pHi of the cells that had been treated by various conditions. The cells were planted in black plates, as 6 × 10^4 in each well of the plate, and incubated for 24 h. The medium was replaced with BCFL-AM reagent which had been prepared in 100 µL of HBS solution (Hank’s buffer with 20 mM HEPES, 5 mM probenecid), then the cells were incubated at 37 °C in an atmosphere of 5% CO2 for 30 min (protected from light). Sulphonamide compound at doses of 0, 10, 25 and 50 µM was added to the HBS solution. In the next 5 min, the measurement was performed at wavelengths of 490 nm (excitation) and 535 nm (emission) in spectrofluorimetry (Spectramax, M5). Extracellular pH (pHe) and lactate levels were measured with commercial kit by the blood gas device (ABL90 FLEX PLUS, Radiometer, Copenhagen, Denmark) which is routinely used in the clinical biochemistry laboratory of hospital. After the application of the substance in this method, the media were analysed directly by the device.

HeLa cells [5] = experiment: Cell cycle analysis by flow cytometry; assay type: cell-based, human; conditions: 24 h
Protocol: Cell cycle analysis was performed using BD Cycletest™ Plus DNA Reagent kit (BD Biosciences). According to the kit protocol, 1 × 10^6 cells were planted in 6-well plates, and following 24 h, the cells were incubated for 24 h, with sulphonamide derivative compounds at concentrations of 10–25–50 µM. The cells were raised with trypsin handling and centrifuged at 1500 rpm for 5 min. A suspension was formed with 1X binding buffer, and respectively, 250 µL solution A was added and incubated in a light-free environment for 10 min; 200 µL solution B was added and incubated in a light-free environment for 10 min; and 200 µL solution C was added and incubated in at +4° C in a protected-light environment for 10 min. All analyses were performed by flow cytometry (BD Via, New Jersey, USA).

NS(=O)(=O)c1ccc(CCN=Cc2cc(Br)ccc2O)cc1 [Compound 1]
DNA damage (γ-H2AX foci) (HeLa cells [1]): increasing γ-H2AX focus points | intracellular free amino acid levels (HeLa cells [2]): decreased | IC50 ([3]; WST-1, 24 h, read-out: IC50 HEK-293 24 h): 59.7 ± 11.2 µM | IC50 ([3]; WST-1, 48 h, read-out: IC50 HEK-293 48 h): 83.6 ± 21.2 µM | IC50 ([3]; WST-1, 72 h, read-out: IC50 HEK-293 72 h): 35.8 ± 11.2 µM | lactate level of media (HeLa cells [4]; HeLa cell media): significant dose-related fall | pHe (HeLa cells [4]; HeLa cell media): significant increase | pHi (HeLa cells [4]; HeLa, 0, 10, 25 and 50 µM): significant dose-related fall | S (HeLa cells [5]; 50μM): 20.1% | Sub-G1 (HeLa cells [5]; 50μM): 10.8% | dose from which the cell division effect was seen (HeLa cells [5]): ≥ 25 µM
